Source: PubChem BioAssay AID1963445 (Molecular Pharmacology Branch, DTP, NCI, 2024)

Tested on: MCF7 complex spheroid growth, % test/control
Test: Anticancer human tumor MCF7 cell line growth inhibition [Asc];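 note: spheroids exposed to compounds for 7 days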;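 for viability, T/C: 100% = DMSO vehicle control wells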
Conditions: for IC50: curve of first compound; for viability, T/C: stronger effect = lower value
Method in brief: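 Spheroid model: tumor line + HUVEC + hMSC. Single agents and combinations; top conc. at/near clinical Cmax (10 microM if undetermined), half-log dilutions. DMSO stocks at 800-fold test concentration.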

With COc1c(OCCCN2CCOCC2)ccc2c3n(c(=NC(=O)c4cnc(N)nc4)nc12)CCN3 + CNC(C)C(=O)NC1CN(S(=O)(=O)c2cccc(S(=O)(=O)N3CCC4CCC(C(=O)NC(c5ccccc5)c5ccccc5)N4C(=O)C(NC(=O)C(C)NC)C3)c2)CCC2CCC(C(=O)NC(c3ccccc3)c3ccccc3)N2C1=O the IC50 (second compound 0.00316 µM) was 3.2 nM, the IC50 (second compound 0.01 µM) was less than 3.16 nM and the IC50 (second compound 0.0316 µM) was less than 3.16 nM. It also gave an IC50 (second compound 0.1 µM) of less than 3.16 nM, an IC50 (second compound 0.316 µM) of less than 3.16 nM and an IC50 (second compound 1 µM) of less than 3.16 nM. It also gave a viability, T/C (second compound 0.00316 µM, first compound 0.00316 µM) of 50.2%, a viability, T/C (second compound 0.00316 µM, first compound 0.01 µM) of 35.3% and a viability, T/C (second compound 0.00316 µM, first compound 0.0316 µM) of 14.7%. The viability, T/C (second compound 0.00316 µM, first compound 0.1 µM) was 8.43%, the viability, T/C (second compound 0.00316 µM, first compound 0.316 µM) was 8.17% and the viability, T/C (second compound 0.00316 µM, first compound 1 µM) was 8.35%. For the same molecule, the viability, T/C (second compound 0.01 µM, first compound 0.00316 µM) was 10.9%, the viability, T/C (second compound 0.01 µM, first compound 0.01 µM) was 9.75% and the viability, T/C (second compound 0.01 µM, first compound 0.0316 µM) was 9.42%. The viability, T/C (second compound 0.01 µM, first compound 0.1 µM) was 8.15%, the viability, T/C (second compound 0.01 µM, first compound 0.316 µM) was 6.06% and the viability, T/C (second compound 0.01 µM, first compound 1 µM) was 8.55%. The viability, T/C (second compound 0.0316 µM, first compound 0.00316 µM) was 12.6%, the viability, T/C (second compound 0.0316 µM, first compound 0.01 µM) was 10.9% and the viability, T/C (second compound 0.0316 µM, first compound 0.0316 µM) was 9.42%. The viability, T/C (second compound 0.0316 µM, first compound 0.1 µM) was 9.87%, the viability, T/C (second compound 0.0316 µM, first compound 0.316 µM) was 7.86% and the viability, T/C (second compound 0.0316 µM, first compound 1 µM) was 8.09%. For the same molecule, the viability, T/C (second compound 0.1 µM, first compound 0.00316 µM) was 13.9%, the viability, T/C (second compound 0.1 µM, first compound 0.01 µM) was 11.1% and the viability, T/C (second compound 0.1 µM, first compound 0.0316 µM) was 10.8%. The viability, T/C (second compound 0.1 µM, first compound 0.1 µM) was 12%, the viability, T/C (second compound 0.1 µM, first compound 0.316 µM) was 10.7% and the viability, T/C (second compound 0.1 µM, first compound 1 µM) was 8.86%. For the same molecule, the viability, T/C (second compound 0.316 µM, first compound 0.00316 µM) was 11.8%, the viability, T/C (second compound 0.316 µM, first compound 0.01 µM) was 9.96% and the viability, T/C (second compound 0.316 µM, first compound 0.0316 µM) was 10.1%. For the same molecule, the viability, T/C (second compound 0.316 µM, first compound 0.1 µM) was 10%, the viability, T/C (second compound 0.316 µM, first compound 0.316 µM) was 8.17% and the viability, T/C (second compound 0.316 µM, first compound 1 µM) was 8.52%. It also gave a viability, T/C (second compound 1 µM, first compound 0.00316 µM) of 11.3%, a viability, T/C (second compound 1 µM, first compound 0.01 µM) of 9.91% and a viability, T/C (second compound 1 µM, first compound 0.0316 µM) of 13%. The viability, T/C (second compound 1 µM, first compound 0.1 µM) was 10.5%, the viability, T/C (second compound 1 µM, first compound 0.316 µM) was 9.23% and the viability, T/C (second compound 1 µM, first compound 1 µM) was 9.11%.

Molecule CCN1C(C(=O)NC23CCC(C(=O)O)(CC2)CC3)C(c2cccc(Cl)c2F)C2(C(=O)Nc3cc(Cl)ccc32)C12CCCCC2 (centres undefined) + CNC(C)C(=O)NC1CN(S(=O)(=O)c2cccc(S(=O)(=O)N3CCC4CCC(C(=O)NC(c5ccccc5)c5ccccc5)N4C(=O)C(NC(=O)C(C)NC)C3)c2)CCC2CCC(C(=O)NC(c3ccccc3)c3ccccc3)N2C1=O has an IC50 (second compound 0.00316 µM) of less than 9.49 nM, an IC50 (second compound 0.01 µM) of less than 9.49 nM and an IC50 (second compound 0.0316 µM) of less than 9.49 nM. The IC50 (second compound 0.1 µM) was less than 9.49 nM, the IC50 (second compound 0.316 µM) was less than 9.49 nM and the IC50 (second compound 1 µM) was less than 9.49 nM. For the same molecule, the viability, T/C (second compound 0.00316 µM, first compound 0.00949 µM) was 40.9%, the viability, T/C (second compound 0.00316 µM, first compound 0.03 µM) was 14.3% and the viability, T/C (second compound 0.00316 µM, first compound 0.0949 µM) was 10.8%. It also gave a viability, T/C (second compound 0.00316 µM, first compound 0.3 µM) of 11%, a viability, T/C (second compound 0.00316 µM, first compound 0.949 µM) of 8.86% and a viability, T/C (second compound 0.00316 µM, first compound 3 µM) of 5.04%. For the same molecule, the viability, T/C (second compound 0.01 µM, first compound 0.00949 µM) was 11.4%, the viability, T/C (second compound 0.01 µM, first compound 0.03 µM) was 8.24% and the viability, T/C (second compound 0.01 µM, first compound 0.0949 µM) was 8.54%. For the same molecule, the viability, T/C (second compound 0.01 µM, first compound 0.3 µM) was 5.55%, the viability, T/C (second compound 0.01 µM, first compound 0.949 µM) was 5.82% and the viability, T/C (second compound 0.01 µM, first compound 3 µM) was 5.04%. It also gave a viability, T/C (second compound 0.0316 µM, first compound 0.00949 µM) of 11.9%, a viability, T/C (second compound 0.0316 µM, first compound 0.03 µM) of 8.85% and a viability, T/C (second compound 0.0316 µM, first compound 0.0949 µM) of 5.62%. For the same molecule, the viability, T/C (second compound 0.0316 µM, first compound 0.3 µM) was 5.69%, the viability, T/C (second compound 0.0316 µM, first compound 0.949 µM) was 4.2% and the viability, T/C (second compound 0.0316 µM, first compound 3 µM) was 5.94%. The viability, T/C (second compound 0.1 µM, first compound 0.00949 µM) was 12%, the viability, T/C (second compound 0.1 µM, first compound 0.03 µM) was 10.7% and the viability, T/C (second compound 0.1 µM, first compound 0.0949 µM) was 6.73%. The viability, T/C (second compound 0.1 µM, first compound 0.3 µM) was 6.23%, the viability, T/C (second compound 0.1 µM, first compound 0.949 µM) was 4.67% and the viability, T/C (second compound 0.1 µM, first compound 3 µM) was 5.57%. It also gave a viability, T/C (second compound 0.316 µM, first compound 0.00949 µM) of 12.5%, a viability, T/C (second compound 0.316 µM, first compound 0.03 µM) of 10.7% and a viability, T/C (second compound 0.316 µM, first compound 0.0949 µM) of 7.04%. For the same molecule, the viability, T/C (second compound 0.316 µM, first compound 0.3 µM) was 5.56%, the viability, T/C (second compound 0.316 µM, first compound 0.949 µM) was 5.97% and the viability, T/C (second compound 0.316 µM, first compound 3 µM) was 6.29%. The viability, T/C (second compound 1 µM, first compound 0.00949 µM) was 11.2%, the viability, T/C (second compound 1 µM, first compound 0.03 µM) was 12.5% and the viability, T/C (second compound 1 µM, first compound 0.0949 µM) was 9.54%. It also gave a viability, T/C (second compound 1 µM, first compound 0.3 µM) of 5.59%, a viability, T/C (second compound 1 µM, first compound 0.949 µM) of 4.74% and a viability, T/C (second compound 1 µM, first compound 3 µM) of 6.71%.
